Experimental data: US7754685B2, “Methods and pharmaceutical compositions for the treatment and prevention of hepatitis C infection” (Scynexis, Inc., priority 2005, dated 2010)
Like-named read-outs stand apart in the source and are kept apart here.

Legend:
HCV RNA replicon ET [1] = assay: HCV RNA replicon assay in ET cell line, luciferase (LUC) endpoint, antiviral activity; type: cell-based; details: Hepatitis C virus; Example 6 (2′-C-methyl-cytidine combination experiment), single compound; read-out: EC50 of compound alone
Procedure: The compounds of the present invention were tested for activity against HCV using the methods adapted from those described by Kriger et al., 2001, Journal of Virology, 75:4614-4624, Pietschmann et al., 2002, Journal of Virology 76:4008-4021, and using HCV RNA constructs as described in U.S. Pat. No. 6,630,343. The contents of these references are hereby incorporated by reference in their entireties.
Compounds were examined in the human hepatoma cell line ET (lub ubi neo/ET), a HCV RNA replicon containing a stable luciferase (LUC) reporter. The HCV RNA replicon ET contains the 5′ end of HCV (with the HCV Internal Ribosome Entry Site (IRES) and the first few amino acids of the HCV core protein) which drives the production of a firefly luciferase (LUC), ubiquitin, and neomycin phosphotransferase (NeoR) fusion protein. Ubiquitin cleavage releases the LUC and NeoR proteins. The EMCV IRES element controls the translation of the HCV, […] NS3-NS5. The NS3 protein cleaves the HCV polyprotein to release the mature NS3, NS4A, NS4B, NS5A and NS5B proteins that are required for HCV replication. At the 3′ end of the replicon is the authentic 3′ NTR of HCV.
Cyclosporine A was also tested.

[2] = system: Bovine Viral Diarrhea Virus (BVDV), NADL strain; assay: BVDV cytopathic effect drug-drug combination assay in MDBK cells (XTT), antiviral; type: cell-based; details: in combination with IFN-α
[3] = system: Madin-Darby bovine kidney (MDBK) cells; assay: BVDV drug-drug combination assay, cytotoxicity to target cells; type: cell-based; details: in combination with IFN-α
Procedure: Phenazine methosulfate (PMS) solution was prepared at 0.15 mg/mL in PBS and stored in the dark at −20° C. XTT/PMS stock was prepared immediately before use by adding 40 μL of PMS per ml of XTT solution. Fifty microliters of XTT/PMS was added to each well of the plate and the plate was reincubated for 4 hours at 37° C. Plates were sealed with adhesive plate sealers and shaken gently or inverted several times to mix the soluble formazan product and the plate was read spectrophotometrically at 450/650 nm with a Molecular Devices Vmax plate reader.

HCV RNA replicon ET [4] = assay: HCV RNA replicon drug-drug combination (checkerboard, MacSynergy II) antiviral synergy; type: cell-based
Procedure: Compounds and combinations were evaluated in the HCV replicon assay described in Example 2 with changes indicated below.
(§1) The HCV RNA replicon antiviral evaluation assay was utilized to examine the efficacy and cytotoxicity of two compounds (e.g., Drug 1 and Drug 2) in combinations of five versus nine half-log concentrations. The assay was performed using a microtiter plate format for allocation of media, drug, cells, and virus. […] Cells were processed 72 hr later when the cells were still sub-confluent. […] The cytotoxicity was evaluated as the concentration of the drug that reduced cell numbers as described in Example 2.
Compounds of this invention were tested as “Drug 2” at nine concentrations between 0.0078 to 2.0 μM. Interferon-alpha (Sigma) was tested as Drug 1 at 0.005 to 0.5 international units per mL (IU/mL). The data obtained from these checkerboard assays were analyzed with the MacSynergy II (v2.01) (Prichard & Shipman, 1990, Antiviral Res. 14:181-205) and Delta Graph (v1.5d) programs. Each data point used to create three-dimensional plots (FIGS. 1A-1C) was derived from the result of triplicate samples. The statistical relevance of the data was analyzed and plotted at one of three confidence levels (68%, 95% or 99%) to display combinatorial results as additive, synergistic or antagonistic.
Effects of the drug combinations were calculated based on the activity of each compound when tested alone. The expected additive antiviral protection was subtracted from the experimentally determined antiviral activity at each combination concentration resulting in a positive value (synergy), a negative value (antagonism) or zero (additive). […] Slightly synergistic activity and highly synergistic activity have been operationally defined as yielding synergy volumes of 50-100 and >100, respectively.
(§2) Compounds and combinations were evaluated in the HCV replicon assay described in Example 5 with changes noted below.
as §2
(§3) Effects of the drug combinations were calculated based on the activity of each compound when tested alone. The expected additive antiviral protection was subtracted from the experimentally determined antiviral activity at each combination concentration resulting in a positive value (synergy), a negative value (antagonism), or zero (additivity). The results of the combination assays are presented three dimensionally at each combination concentration, yielding a surface of activity extending above (synergy) or below (antagonism) the plane of additivity. The volume of the surface is calculated and expressed as a synergy volume (in units of concentration times concentration times percent; e.g. μM2%, nM2%, nMμM %, etc.) calculated at the 95% confidence interval.

[5] = system: human hepatoma cell line ET; assay: HCV RNA replicon drug-drug combination, cytotoxicity volume; details: in combination with Compound 3; FIG. 3B
Procedure: as §1, §2, §3

[6] = system: human hepatoma cell line ET; details: for IC90: read-out: Cytotoxicity IC90
HCV = details: interferon as single agent or with ribavirin; cited from earlier work
[7] = in combination with 2′-C-methyl-cytidine, 95% confidence interval
[8] = in combination with IFNα, 95% confidence interval
[9] = read-out: Cytotoxicity IC50, Example 2, ET cells, 72 h, colorimetric assay
[10] = Example 2, ET cells, 72 h, colorimetric assay
[11] = read-out: IC50 of compound alone (cytotoxicity), Example 5 (IFNα combination experiment), single compound

`C[C@@]1(O)[C@H](O)[C@@H](CO)O[C@H]1n1ccc(N)nc1=O` [2′-C-methyl-cytidine, reference compound] gave an EC50 (HCV RNA replicon ET [1]) of 750 nM.
For `CC=CCC(C)C(O)C1C(=O)NC(CC)C(=O)N(C)C(OCCN(C)C)C(=O)N(C)C(CC(C)C)C(=O)NC(C(C)C)C(=O)N(C)C(CC(C)C)C(=O)NC(C)C(=O)NC(C)C(=O)N(C)C(CC(C)C)C(=O)N(C)C(CC(C)C)C(=O)N(C)C(C(C)C)C(=O)N1C` (stereo not shown) [C, 3-(2-N,N-dimethylaminoethoxy)cyclosporin], the “drug interaction, anti-BVDV” value [2] was “Additive” and the “cytotoxicity interaction of the combination” value (“cytotoxicity interaction” below) [3] was “Antagonistic cytotoxicity”.
For `CC=CCC(C)C(O)C1C(=O)NC(CC)C(=O)N(C)C(SCCN(C)C)C(=O)N(C)C(CC(C)(C)O)C(=O)NC(C(C)C)C(=O)N(C)C(CC(C)C)C(=O)NC(C)C(=O)NC(C)C(=O)N(C)C(CC(C)C)C(=O)N(C)C(CC(C)C)C(=O)N(C)C(C(C)C)C(=O)N1C` [Compound O, 3-[(R)-2-(N,N-dimethylamino)ethylthio-Sar]-4-(gamma-hydroxymethylleucine)cyclosporin], the antiviral synergy volume (HCV RNA replicon ET [4]; [7]) was 228 μM^2%, the “drug interaction (antiviral) of the combination” value (from here on “drug interaction (antiviral)”) (HCV RNA replicon ET [4]; [7]) was “highly synergistic (Slightly synergistic activity and highly synergistic activity have been operationally defined as yielding synergy volumes of 50-100 and >100, respectively)” and the “drug interaction (antiviral)” value (HCV RNA replicon ET [4]; in combination with Compound 3 (HCV NS3-4A protease inhibitor), FIG. 3A) was “additive or mildly synergistic”. The antiviral synergy volume (HCV RNA replicon ET [4]; [8]) was 122 IU/mLμM %, the “drug interaction (antiviral)” value (HCV RNA replicon ET [4]; [8]) was “highly synergistic (Slightly synergistic activity and highly synergistic activity have been operationally defined as yielding synergy volumes of 50-100 and >100, respectively)” and the “cytotoxicity interaction” value [5] was “antagonistic cytotoxicity”. The “cytotoxicity interaction” value [3] was “Antagonistic cytotoxicity”, the IC50 [6, 9] was 13400 nM and the IC90 [6, 10] was greater than 20000 nM. For the same compound, the IC50 [6, 11] was greater than 2000 nM and the IC50 ([6]; read-out: IC50 of compound alone (cytotoxicity), Example 6, single compound) was greater than 2000 nM.
Work on `CC=CCC(C)C(O)C1C(=O)NC(CC)C(=O)N(C)C(OC)C(=O)N(C)C(CC(C)(C)O)C(=O)NC(C(C)C)C(=O)N(C)C(CC(C)C)C(=O)NC(C)C(=O)NC(C)C(=O)N(C)C(CC(C)C)C(=O)N(C)C(CC(C)C)C(=O)N(C)C(C(C)C)C(=O)N1C` (stereo not shown) [Compound T, 3-(methoxy)-4-(gamma-hydroxymethylleucine)cyclosporin] yielded an antiviral synergy volume (HCV RNA replicon ET [4]; [8]) of 6 IU/mLμM %, an IC50 [6, 9] greater than 2000 nM and an IC90 [6, 10] greater than 2000 nM. The IC50 [6, 11] was greater than 2000 nM.
In the case of interferon, the “share of the subject population in which the virus is eradicated” value (HCV) is listed as 33-46%.
